Experiments:
[1] = biological target: Acetylcholinesterase (Electrophorus electricus, UniProt O42275); test: Inhibition of electric eel AChE using acetylthiocholine iodide as substrate preincubated for 5 mins followed by substrate addition measured after 2 mins by Ellman's method
[2] = biological target: T1, Cholinesterase (Equus caballus, UniProt P81908); test: Inhibition of horse BChE using butyrylthiocholine as substrate measured for 5 mins by Ellman's method
[3] = Selectivity index, ratio of IC50 for human red blood cell AChE to IC50 for equine serum BChE
[4] = biological target: T2, Amine oxidase [flavin-containing] B (Homo sapiens, UniProt P27338); test: Displacement of 14C-phenylethylamine from MAO-B (unknown origin) preincubated for 60 mins followed by substrate addition measured after 20 mins in presence of clorgyline by liquid scintillation counting method
T2 sequence (P27338 whole entry): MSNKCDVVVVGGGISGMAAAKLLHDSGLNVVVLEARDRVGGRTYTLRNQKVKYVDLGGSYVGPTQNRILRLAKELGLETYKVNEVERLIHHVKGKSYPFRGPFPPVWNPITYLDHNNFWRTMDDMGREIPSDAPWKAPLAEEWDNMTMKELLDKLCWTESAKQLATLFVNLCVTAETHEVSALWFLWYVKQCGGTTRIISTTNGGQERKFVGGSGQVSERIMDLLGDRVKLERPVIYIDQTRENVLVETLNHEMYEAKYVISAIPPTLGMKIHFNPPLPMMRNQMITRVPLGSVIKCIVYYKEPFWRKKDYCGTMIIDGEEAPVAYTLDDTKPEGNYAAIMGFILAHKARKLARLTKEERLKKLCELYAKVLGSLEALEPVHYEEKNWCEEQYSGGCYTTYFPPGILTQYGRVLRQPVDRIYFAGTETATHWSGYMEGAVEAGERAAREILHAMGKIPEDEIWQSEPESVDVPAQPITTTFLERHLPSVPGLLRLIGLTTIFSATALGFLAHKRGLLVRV

[5] = biological target: T1, Cholinesterase; test: Inhibition of equine serum BChE using butyrylthiocholine as substrate preincubated for 60 mins by Ellman's method
[6] = biological target: T3, Amine oxidase [flavin-containing] A (Homo sapiens, UniProt P21397); test: Displacement of 14C-5-hydroxytryptamine creatinine disulfate from MAO-A (unknown origin) preincubated for 60 mins followed by substrate addition measured after 30 mins in presence of selegiline by liquid scintillation counting method
T3 sequence (P21397 whole entry): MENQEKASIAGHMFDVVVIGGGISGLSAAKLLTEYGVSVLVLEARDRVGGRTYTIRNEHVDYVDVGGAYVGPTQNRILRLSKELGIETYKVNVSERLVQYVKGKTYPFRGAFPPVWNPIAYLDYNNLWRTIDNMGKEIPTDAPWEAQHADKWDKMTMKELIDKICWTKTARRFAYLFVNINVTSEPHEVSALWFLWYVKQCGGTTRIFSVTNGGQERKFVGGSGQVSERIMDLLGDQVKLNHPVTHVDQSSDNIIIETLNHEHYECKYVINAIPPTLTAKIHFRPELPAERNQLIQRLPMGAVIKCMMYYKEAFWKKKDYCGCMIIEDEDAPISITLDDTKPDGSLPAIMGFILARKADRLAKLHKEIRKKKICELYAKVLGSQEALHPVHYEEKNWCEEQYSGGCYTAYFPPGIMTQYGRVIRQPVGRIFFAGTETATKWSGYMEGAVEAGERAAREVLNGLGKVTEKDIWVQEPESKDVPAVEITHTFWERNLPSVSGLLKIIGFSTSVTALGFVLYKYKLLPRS

[7] = biological target: T4, Acetylcholinesterase (Rattus norvegicus, UniProt P37136); test: Inhibition of Sprague-Dawley rat cortex AChE using acetylthiocholine iodide as substrate incubated for 15 mins in presence of iso-OMPA inhibitor by Ellman's method
T4 sequence (P37136 whole entry): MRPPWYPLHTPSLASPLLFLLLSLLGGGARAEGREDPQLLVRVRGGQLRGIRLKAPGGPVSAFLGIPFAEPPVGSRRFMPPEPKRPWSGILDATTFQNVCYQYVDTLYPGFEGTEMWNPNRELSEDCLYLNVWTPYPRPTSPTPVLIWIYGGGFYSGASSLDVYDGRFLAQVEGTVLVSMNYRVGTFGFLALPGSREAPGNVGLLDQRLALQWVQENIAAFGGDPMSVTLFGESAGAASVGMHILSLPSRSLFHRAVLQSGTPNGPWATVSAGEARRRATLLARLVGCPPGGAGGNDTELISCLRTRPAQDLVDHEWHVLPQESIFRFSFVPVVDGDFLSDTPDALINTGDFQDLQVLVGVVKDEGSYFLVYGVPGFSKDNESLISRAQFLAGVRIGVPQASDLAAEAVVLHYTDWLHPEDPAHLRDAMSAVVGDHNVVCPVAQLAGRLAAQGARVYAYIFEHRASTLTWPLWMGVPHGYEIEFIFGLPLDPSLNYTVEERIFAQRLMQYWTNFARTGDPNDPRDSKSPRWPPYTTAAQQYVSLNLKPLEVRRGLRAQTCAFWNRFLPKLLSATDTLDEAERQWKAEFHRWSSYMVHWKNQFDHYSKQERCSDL

[8] = biological target: T5, Butyrylcholinesterase (Rattus norvegicus, UniProt Q9JKC1); test: Inhibition of Sprague-Dawley rat serum BChE using butyrylthiocholine iodide as substrate incubated for 15 mins by Ellman's method
[9] = biological target: T5, Butyrylcholinesterase; test: Inhibition of rat BChE
[10] = biological target: Acetylcholinesterase and butyrylcholinesterase (AChE and BChE) (Rattus norvegicus) (UniProt P37136+Q9JKC1); test: Selectivity index, ratio of IC50 for rat AChE to IC50 for rat BChE; type: protein assay
[11] = biological target: T4, Acetylcholinesterase; test: Inhibition of rat AChE
[12] = biological target: Acetylcholinesterase (Homo sapiens, UniProt P22303); test: Inhibition of recombinant human AChE using acetylthiocholine as substrate preincubated for 20 mins followed by substrate addition measured after 6 mins by Ellman's method
Sequence of Acetylcholinesterase (Homo sapiens, UniProt P22303) (P22303 whole entry): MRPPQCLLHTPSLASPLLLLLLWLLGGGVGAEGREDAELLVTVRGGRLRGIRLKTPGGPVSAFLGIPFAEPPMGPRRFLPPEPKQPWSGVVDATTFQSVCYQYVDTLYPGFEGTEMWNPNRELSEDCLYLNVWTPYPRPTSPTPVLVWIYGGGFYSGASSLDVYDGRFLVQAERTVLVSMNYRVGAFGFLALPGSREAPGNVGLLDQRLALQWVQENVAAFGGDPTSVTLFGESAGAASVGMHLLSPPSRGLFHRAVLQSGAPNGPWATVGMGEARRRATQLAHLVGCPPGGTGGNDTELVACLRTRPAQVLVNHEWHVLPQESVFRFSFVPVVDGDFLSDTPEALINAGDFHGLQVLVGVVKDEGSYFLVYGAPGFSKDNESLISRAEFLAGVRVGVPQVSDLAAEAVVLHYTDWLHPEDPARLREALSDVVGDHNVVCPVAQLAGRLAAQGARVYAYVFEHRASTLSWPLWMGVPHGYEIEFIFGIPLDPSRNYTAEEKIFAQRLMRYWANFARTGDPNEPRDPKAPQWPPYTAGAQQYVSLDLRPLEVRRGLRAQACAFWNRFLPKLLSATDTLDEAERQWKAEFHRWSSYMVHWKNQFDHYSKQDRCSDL

T5 sequence (Q9JKC1 whole entry): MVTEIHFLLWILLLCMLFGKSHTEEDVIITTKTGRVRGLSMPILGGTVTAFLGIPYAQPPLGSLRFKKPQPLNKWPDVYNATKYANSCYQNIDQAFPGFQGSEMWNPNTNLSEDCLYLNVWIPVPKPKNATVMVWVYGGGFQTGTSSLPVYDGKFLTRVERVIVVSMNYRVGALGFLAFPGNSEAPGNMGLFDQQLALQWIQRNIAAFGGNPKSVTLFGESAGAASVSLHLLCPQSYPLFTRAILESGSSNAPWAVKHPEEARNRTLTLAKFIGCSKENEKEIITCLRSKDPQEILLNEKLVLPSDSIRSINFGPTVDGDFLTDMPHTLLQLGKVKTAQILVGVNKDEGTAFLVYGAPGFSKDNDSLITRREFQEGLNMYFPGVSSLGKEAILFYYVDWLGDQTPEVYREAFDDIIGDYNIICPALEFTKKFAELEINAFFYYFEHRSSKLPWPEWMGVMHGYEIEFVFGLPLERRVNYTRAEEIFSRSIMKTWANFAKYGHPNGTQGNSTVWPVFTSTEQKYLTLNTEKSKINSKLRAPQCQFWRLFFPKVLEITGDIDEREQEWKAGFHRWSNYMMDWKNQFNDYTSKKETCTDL
T1 sequence (P81908 whole entry): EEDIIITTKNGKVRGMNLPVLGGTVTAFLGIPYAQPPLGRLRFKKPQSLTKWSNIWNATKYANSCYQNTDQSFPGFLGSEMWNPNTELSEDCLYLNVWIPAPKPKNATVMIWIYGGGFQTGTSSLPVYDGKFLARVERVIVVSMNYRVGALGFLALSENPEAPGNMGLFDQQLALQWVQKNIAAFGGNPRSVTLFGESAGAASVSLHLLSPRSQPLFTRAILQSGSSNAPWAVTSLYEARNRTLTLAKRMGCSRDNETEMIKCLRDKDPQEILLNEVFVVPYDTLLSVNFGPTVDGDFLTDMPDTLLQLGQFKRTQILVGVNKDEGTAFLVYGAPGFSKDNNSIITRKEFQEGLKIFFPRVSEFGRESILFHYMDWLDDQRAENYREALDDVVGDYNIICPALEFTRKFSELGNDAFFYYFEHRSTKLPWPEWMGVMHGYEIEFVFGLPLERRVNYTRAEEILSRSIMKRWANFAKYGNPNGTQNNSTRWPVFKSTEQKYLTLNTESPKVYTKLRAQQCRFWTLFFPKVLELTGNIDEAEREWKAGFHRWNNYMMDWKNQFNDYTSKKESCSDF
Sequence of Acetylcholinesterase and butyrylcholinesterase (AChE and BChE) (Rattus norvegicus) (Q9JKC1 1-597, one chain of several): as the sequence (Q9JKC1 whole entry) above
Sequence of Acetylcholinesterase (Electrophorus electricus, UniProt O42275) (O42275 whole entry): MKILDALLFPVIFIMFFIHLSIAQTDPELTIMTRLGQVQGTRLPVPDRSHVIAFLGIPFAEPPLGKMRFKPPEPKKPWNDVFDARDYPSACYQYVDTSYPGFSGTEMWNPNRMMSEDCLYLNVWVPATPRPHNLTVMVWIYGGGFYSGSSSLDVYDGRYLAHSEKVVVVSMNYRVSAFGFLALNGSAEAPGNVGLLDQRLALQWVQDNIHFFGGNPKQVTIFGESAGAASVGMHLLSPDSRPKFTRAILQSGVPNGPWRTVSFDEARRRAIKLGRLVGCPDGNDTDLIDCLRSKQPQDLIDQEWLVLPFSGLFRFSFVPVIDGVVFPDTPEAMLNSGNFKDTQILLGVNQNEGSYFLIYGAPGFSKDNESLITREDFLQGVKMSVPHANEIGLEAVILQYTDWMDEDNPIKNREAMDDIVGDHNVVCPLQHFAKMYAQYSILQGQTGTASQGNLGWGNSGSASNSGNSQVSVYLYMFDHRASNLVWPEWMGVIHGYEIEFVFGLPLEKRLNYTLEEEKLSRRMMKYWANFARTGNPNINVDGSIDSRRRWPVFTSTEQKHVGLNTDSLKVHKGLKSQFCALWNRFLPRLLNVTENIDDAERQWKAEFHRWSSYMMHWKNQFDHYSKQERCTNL

For `CCOC(=O)Nc1ccc(N2CCN(c3ccccc3OC)CC2)cc1`, the IC50 [1] was 93.5 nM.
For `O=C(Nc1ccccc1)Oc1cccc(CN2CCN(c3ccccc3)CC2)c1`, the IC50 [2] was 2000 nM.
`C#CCN(C)C(C)Cc1cccc(OC(=O)N(C)CC)c1` (configuration not stated) showed a Ratio IC50 [3] of 153, an IC50 [4] of 100 nM and an IC50 [5] of 1500 nM. It also gave an IC50 [6] of 120 nM.
In the case of `O=C(Oc1ccc(/C=C/c2cc(OC(=O)N3CCN(Cc4ccccc4)CC3)cc(OC(=O)N3CCN(Cc4ccccc4)CC3)c2)cc1)N1CCN(Cc2ccccc2)CC1`, the IC50 [7] is reported as 4110 nM and the IC50 [8] is reported as 1130 nM.
For `CN(C)C(=O)Oc1cc(OC(=O)N(C)C)cc(C(O)CNC(C)(C)C)c1` (configuration not stated) [BAMBUTEROL], the IC50 [9] was 3 nM, the Ratio IC50 [10] was 10000 and the IC50 [11] was 30000 nM.
With `CC[C@@]1(c2cccc(OC(=O)Nc3ccccc3)c2)CCCCN(C)C1` the IC50 [12] was 274 nM.

From ChEMBL document CHEMBL5214927, “Recent advance on carbamate-based cholinesterase inhibitors as potential multifunctional agents against Alzheimer's disease” (Eur J Med Chem, 2022)
